# Where two headings read alike, the source gives them in different places.
# Tests used:
# [1] = molecular target: T1, PEX14 NTD (Homo sapiens, UniProt O75381); conditions: SD, n = 3; read-out: KD (µM) (Suppl. Table 2); KD (nM) (Suppl. Table 4)
# T1 construct: PEX14 NTD (1-104), expressed in E. coli with His6-SUMO tag, cleaved
# Experimental: Isothermal titration calorimetry (ITC) measurements were performed as triplicates at 25 °C using a MicroCal PEAQ-ITC (Malvern Instruments Ltd. U.K) calorimeter. Buffer conditions were 20 mM Tris pH 7.5, 50 mM NaCl. For all titrations a titrant dilution control experiment was performed and subtracted before the data were fitted to a one-site binding model using the Malvern Analysis software.
# PEX13 SH3 at a concentration of 35-48 µM was titrated with purchased 15mer peptides containing (di)aromatic penta peptides from PEX5 or PEX5 1-76 (W0) at concentration of 0.7-0.6 mM and PEX13 350-403 (FxxxF) at a concentration of 0.9-1 mM. […] The concentration of PEX14 was corrected with the fit, since it cannot be accurate measured at 280 nm owing to the extinction coefficient of only 1490.
# [2] = molecular target: T1, PEX14 NTD; set-up: method as in values quoted from other papers; conditions: cited from earlier work
# T1 sequence (O75381 1-104): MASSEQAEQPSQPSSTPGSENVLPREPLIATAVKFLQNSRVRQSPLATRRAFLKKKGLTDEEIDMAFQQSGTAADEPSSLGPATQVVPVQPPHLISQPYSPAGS
Substance,Kd [1],Kd [2]
PEX5 1-76 (contains […]) [PEX5 W0],0.0551 µM,–
PEX13 residues 261-403 [PEX13 SH3-CTR],5.4 µM,–
PEX19 FxxxF motif (66-77 SQEKFFQELFDS in Fig. 3b; exact ligand of cited work not printed),–,9.2 µM
